From patent US4064169A, “Bis-(meta-amidinophenoxy)-compounds and pharmacologically acceptable acid addition salts thereof” (Eisai Co., Ltd., priority 1976, dated 1977)
Structures can show the parent of a compound that is named as a salt. Where two headings read alike, the source gives them in different places.

How the values were obtained:
Assay type in all cases: cell-based
Candida albicans = assay: Anti-candida activity (summary)
Method: (§1) Respective agar plates were prepared by dissolving compounds under test in aseptic water to make a two fold dilution series, taking each 1 milliliter of said diluted solutions and 9 ml of Sabouraud medium into a petri dish, and sufficiently admixing the same.
(§2) On the other hand, an inoculum was prepared by cultivating an examined fungus (microorganism) on the Sabouraud slant medium and suspending two loopful of the incubated fungus in 10 ml of sterilized physiological saline water.
(§3) One loopful of the inoculum was streaked on the above-mentioned agar plate. After the agar plate was incubated at a defined temperature for a predetermined period of time to determine the minimal inhibitory concentration (M.I.C.).
Incubation time: 3 days (72 hours)

Saccharomyces cerevisiae = assay: Antifungal Test (agar dilution M.I.C.); conditions: Table 1, 27° C.
Method: as §1, §2, §3
(§4) Incubation temperature:
(§5) Incubation time: 3 days (72 hours) and […]

[1] = test system: Candida guilliermondii AHU 3654; assay: Antifungal Test (agar dilution M.I.C.); conditions: Meyerozyma guilliermondii, Table 1, 27° C.
Method: as §1, §2, §3, §4, §5

Candida ulitis AHU 3053 = assay: Antifungal Test (agar dilution M.I.C.); conditions: Table 1, 27° C.
Method: as §1, §2, §3, §4, §5

Cryptococcus neoformans = assay: Antifungal Test (agar dilution M.I.C.); conditions: Table 1, 27° C.
Method: as §1, §2, §3, §4, §5

[2] = test system: Candida tropicalis AHU 3071; assay: Antifungal Test (agar dilution M.I.C.); conditions: Table 1, 27° C.
Method: as §1, §2, §3, §4, §5

Trichomonas vaginalis = assay: Anti-trichomonal Test; conditions: 72 h, ASAMI medium containing 20% horse serum, 37° C., 3 days, read-out: minimal inhibitory concentration
Method: The compound under test was dissolved in aseptic water, and filtered aseptically to prepare a two fold dilution series. Each 2.6 ml ASAMI medium containing 20% of the horse serum were respectively taken into small test tubes. Onto the medium, there were incubated 0.3 ml of the two fold dilution solution of the compounds and 0.1 ml of the suspension of the ASAMI medium of Trichomonas vaginalis which was cultured at 37° C. for 3 days respectively. Incubation was carried out at 37° C. for 3 days to determine the minimal inhibitory concentration.

Escherichia coli E-15 = assay: Antibacterial Test (agar dilution M.I.C.); conditions: E15, Table 5, 37° C., 18 hours
Method: (§6) A compound under test was dissolved in aseptic water to prepare a two fold dilution series. Each 1 milliliter of the solution was taken in a petri dish. Nine ml of infusion agar medium (Difco) was added to the solution, thereby preparing the agar plate for test. A pre-culture of each test strain in Tripticase soy broth medium (BBL) at 37° C. for 18 hours was streaked on the above-mentioned agar plate, and the said agar plate was incubated at 37° C. for 18 hours to determine the minimal inhibitory concentration (M.I.C.).

Pseudomonas aeruginosa = assay: Antibacterial Test (agar dilution M.I.C.); conditions: Table 5, 37° C., 18 hours
Method: as §6

[3] = test system: Escherichia coli NIHJ JC-1; assay: Antibacterial Test (agar dilution M.I.C.); conditions: NIHJJC1, Table 5, 37° C., 18 hours
Method: as §6

[4] = test system: Klebsiella pneumonial NO-1; assay: Antibacterial Test (agar dilution M.I.C.); conditions: NO1, Table 5, 37° C., 18 hours
Method: as §6

[5] = test system: Staphylococcus aureus 13-6; assay: Antibacterial Test (agar dilution M.I.C.); conditions: 136, Table 5, 37° C., 18 hours
Method: as §6

[6] = test system: Streptococcus hemolyticus Y-73-5; assay: Antibacterial Test (agar dilution M.I.C.); conditions: Streptococcus pyogenes, Y735; Table 5; 37° C., 18 hours
Method: as §6

[7] = test system: Staphylococcus aureus 209-P JO-1; assay: Antibacterial Test (agar dilution M.I.C.); conditions: Table 5, 37° C., 18 hours
Method: as §6

Proteus mirabilis OM-1 = assay: Antibacterial Test (agar dilution M.I.C.); conditions: OM1, Table 5, 37° C., 18 hours
Method: as §6

[8] = test system: Salmonella typhimurium 1406; assay: Antibacterial Test (agar dilution M.I.C.); conditions: Salmonella enterica, Table 5, 37° C., 18 hours
Method: as §6

Candida Krusei AHU 3993 = assay: Antifungal test when a serum is added; conditions: Pichia kudriavzevii, 27° C, read-out: M.I.C. of serum added
Method: as §1, §2, §3
(§7) Minimal inhibitory concentration (M.I.C.) was determined by preparing the agar plate medium in the same manner of the preceding pharmacological test 1, except for the addition of the horse serum. The concentration of the component in the medium was finally corrected, so that it may amount to the concentration of the component when the horse serum was not added.
(§8) Incubation temperature: […]

[9] = test system: Candida guilliermondii AHU 3654; assay: Antifungal test when a serum is added; conditions: Meyerozyma guilliermondii, 27° C, read-out: M.I.C. of serum added
Method: as §1, §2, §3, §7, §8

Question: Which “anti-candida activity compared with nystatin” value (Candida albicans) does the source give for N=C(N)c1cccc(OCC2CCC(COc3cccc(C(=N)N)c3)CC2)c1 (stereo not drawn) [Compound A, 1,4-Bis-(m,m'-amidinophenoxymethyl)-cyclohexane-dihydrochloride] here?
Answer: The value was “more excellent anti-candida activity than that of the nystatin”.

Question: What about the MIC (Saccharomyces cerevisiae; 72 h, 3 days incubation) of the same molecule?
Answer: Its MIC is under 1.56 µg/mL.

Question: What about the MIC (Saccharomyces cerevisiae; 168 h, 7 days incubation) of the same molecule?
Answer: The MIC was under 1.56 µg/mL.

Question: What about the MIC ([1]; AHU3654, 72 h, 3 days incubation) of the same molecule?
Answer: Its MIC is 25 µg/mL.

Question: What about the MIC ([1]; AHU3654, 168 h, 7 days incubation) of the same molecule?
Answer: Its MIC is 25 µg/mL.

Question: And the MIC (Candida ulitis AHU 3053; AHU3053, 72 h, 3 days incubation)?
Answer: The MIC was 3.13 µg/mL.

Question: What about the MIC (Candida ulitis AHU 3053; AHU3053, 168 h, 7 days incubation) of the same molecule?
Answer: The MIC was 3.13 µg/mL.

Question: And the MIC (Cryptococcus neoformans; 72 h, 3 days incubation)?
Answer: Its MIC is 3.13 µg/mL.

Question: And the MIC (Cryptococcus neoformans; 168 h, 7 days incubation)?
Answer: Its MIC is 3.13 µg/mL.

Question: And the MIC ([2]; AHU3071, 72 h, 3 days incubation)?
Answer: The MIC was 3.13 µg/mL.

Question: And the MIC ([2]; AHU3071, 168 h, 7 days incubation)?
Answer: Its MIC is 3.13 µg/mL.

Question: What about the MIC (Trichomonas vaginalis) of the same molecule?
Answer: Its MIC is 200 µg/mL.

Question: And the MIC (Escherichia coli E-15)?
Answer: The MIC was 200 µg/mL.

Question: What about the MIC (Pseudomonas aeruginosa) of the same molecule?
Answer: Its MIC is over 200 µg/mL.

Question: And the MIC [3]?
Answer: The MIC was 100 µg/mL.

Question: What about the MIC [4] of the same molecule?
Answer: Its MIC is 200 µg/mL.

Question: And the MIC [5]?
Answer: Its MIC is 6.25 µg/mL.

Question: What about the MIC [6] of the same molecule?
Answer: Its MIC is 6.25 µg/mL.

Question: What about the MIC [7] of the same molecule?
Answer: The MIC was 3.13 µg/mL.

Question: And the MIC (Proteus mirabilis OM-1)?
Answer: Its MIC is over 200 µg/mL.

Question: What about the MIC [8] of the same molecule?
Answer: Its MIC is 200 µg/mL.

Question: What about the MIC (Candida Krusei AHU 3993; 72 h, 0 % horse serum, 3 days) of the same molecule?
Answer: The MIC was over 100 µg/mL.

Question: What about the MIC (Candida Krusei AHU 3993; 72 h, 10 % horse serum, 3 days) of the same molecule?
Answer: The MIC was 200 µg/mL.

Question: And the MIC (Candida Krusei AHU 3993; 72 h, 30 % horse serum, 3 days)?
Answer: The MIC was 100 µg/mL.

Question: What about the MIC (Candida Krusei AHU 3993; 168 h, 0 % horse serum, 7 days) of the same molecule?
Answer: The MIC was over 100 µg/mL.

Question: And the MIC (Candida Krusei AHU 3993; 168 h, 10 % horse serum, 7 days)?
Answer: Its MIC is over 200 µg/mL.

Question: What about the MIC (Candida Krusei AHU 3993; 168 h, 30 % horse serum, 7 days) of the same molecule?
Answer: The MIC was 100 µg/mL.

Question: What about the MIC ([9]; AHU3654, 72 h, 0 % horse serum, 3 days) of the same molecule?
Answer: Its MIC is 25 µg/mL.

Question: And the MIC ([9]; AHU3654, 72 h, 10 % horse serum, 3 days)?
Answer: Its MIC is 25 µg/mL.

Question: What about the MIC ([9]; AHU3654, 72 h, 30 % horse serum, 3 days) of the same molecule?
Answer: Its MIC is 50 µg/mL.

Question: And the MIC ([9]; AHU3654, 168 h, 0 % horse serum, 7 days)?
Answer: Its MIC is 25 µg/mL.

Question: What about the MIC ([9]; AHU3654, 168 h, 10 % horse serum, 7 days) of the same molecule?
Answer: The MIC was 25 µg/mL.

Question: What about the MIC ([9]; AHU3654, 168 h, 30 % horse serum, 7 days) of the same molecule?
Answer: The MIC was 50 µg/mL.
